In assay [1] the test system is K562. The experiment in a line: Cell cycle arrest in human K562 cells assessed as accumulation at S phase at 20 nM after 24 hrs by propidium iodide staining-based flow cytometry. The class given is functional. In general terms: In flow cytometry, cells or beads pass a laser one at a time.
The next assay deals with HUVEC. Kind of assay: Antivascular activity in HUVEC cells assessed as change in cell shape at 1 uM after 1 hr by fluorescent-labeled high molecular weight F-dextran permeability assay. The following applies: Homo sapiens. Format: functional, cell-based.
Assay [2] is described as follows: Inhibition of tubulin polymerization assessed as appearance of twisted and shorter tubulin by electron microscopy.
The test system of assay [3] is K562. Kind of assay: Cell cycle arrest in human K562 cells assessed as accumulation at G2/M phase at 20 nM after 24 hrs by propidium iodide staining-based flow cytometry. Format: functional.
The nature of assay [4]: Displacement of [3H]colchicine from tubulin assessed as bound colchicine at […] incubated in dark for 2 hrs by scintillation spectroscopy.
Assay [5] can be described thus: Inhibition of tubulin assembly by Woods method.
The subject of assay [6] is K562. Kind of assay: Cell cycle arrest in human K562 cells assessed as accumulation at G0/G1 phase at 20 nM after 24 hrs by propidium iodide staining-based flow cytometry. The class given is functional.
Assay [7] has as its system K562. Kind of assay: Antiproliferative activity against human K562 cells after 5 days by MTT assay. The following applies: Homo sapiens, K562, 120 h. The class given is functional, cell-based. (In general: Formazan colour is commonly taken as a measure of viable cells.)
For the next assay, the system named is Vero. Kind of assay: Binding affinity to tubulin in african green monkey Vero cells assessed as aberration of microtubule arrangement at 10 uM after 40 mins by immunohistochemistry. The following applies: Chlorocebus sabaeus. Format: cell-based.
Assay [8] in a line: Inhibition of tubulin polymerization assessed as appearance of shorter and ring shaped tubulin by electron microscopy.

Calls of active or inactive are those of the source. The rule behind the calls is not given here.

A word on the IC50: it is the midpoint of a concentration-inhibition curve. On to `COc1ccc(/C=C/C(=O)c2cc(OC)c(OC)c(OC)c2)cc1O`, for which the Activity with K562 [1] is 12%; in the assay with K562 [3] it was 76%; in assay [4], 9%; in the assay on K562 [6] it was 12%. The result (with HUVEC; in [2]) was Active. The same compound registered a half-inhibitory concentration (IC50) in assay [5] of 620 nM.

Take `COc1ccc(/C=C\c2cc(OC)c(OC)c(OC)c2)cc1OP(=O)(O)O`: the outcome in the assay with HUVEC was Active.

`CN(Cc1cnc2nc(N)nc(N)c2n1)c1ccc(C(=O)N[C@@H](CCC(=O)O)C(=O)O)cc1`: the result in the assay on HUVEC was inactive.

`COc1ccc(/C=C(\C)C(=O)c2cc(OC)c(OC)c(OC)c2)cc1F`: the Activity in the assay with K562 [1] was found to be 9%; in the assay on K562 [3], 88%; in [4] it was 6%; in the assay on K562 [6], 3%. Besides, the IC50 is 2 nM in the assay with K562 [7] and 650 nM in [5]. Besides, in the assay on Vero, the outcome was Active.

As for `COc1cc(OC)c(/C=C/C(=O)c2cc(OC)c(OC)c(OC)c2)c(OC)c1`, the Activity was 18% with K562 [1], 72% in the assay with K562 [3], 46% in assay [4] and 10% in the assay on K562 [6]. Also, the values for the IC50 (with K562 [7]; in [5]) were 200 nM and 12000 nM, respectively. Further, the result in the assay with Vero was Active.

With `COc1ccc(/C=C\c2cc(OC)c(OC)c(OC)c2)cc1O` [COMBRETASTATIN A4], the Activity was 8% in the assay with K562 [1], 90% with K562 [3], 8% in assay [4] and 2% in the assay with K562 [6]. For the same compound, in assay [5], the concentration for half-maximal inhibition (IC50) was found to be 100 nM.

Consider `COc1ccc(OC)c(C(=O)/C(C)=C/c2ccc(N(C)C)cc2)c1`, for which the Activity in the assay on K562 [1] is 8%; in the assay with K562 [3] it was 82%; in assay [4], 2%; in the assay with K562 [6], 10%. The IC50 in the assay with K562 [7] is 12 nM; in assay [5], 10000 nM. In the assay on Vero, the outcome was Active.

Regarding `CO/C(=C\c1ccc(OC)c(O)c1)C(=O)c1cc(OC)c(OC)c(OC)c1`, the Activity in the assay with K562 [1] came to 12%; in the assay on K562 [3] it was 84%; in assay [4], 5%; with K562 [6] it was 4%. The result in the assay with HUVEC and in the assay on Vero was Active. Further, the IC50 in the assay with K562 [7] was determined as 1.5 nM; in assay [5], 510 nM.

For the compound `COc1ccc(/C=C/C(=O)c2ccc(OC)c(OC)c2)c(OC)c1`, the Activity in the assay with K562 [1] is 27%; in the assay with K562 [3], 47%; in assay [4], 42%; in the assay on K562 [6], 26%. Besides, the IC50 with K562 [7] was found to be 300 nM; in assay [5], 18000 nM. Besides, in the assay with Vero, the result was Active.

Regarding `COc1cc(OC)c(C(=O)/C=C/c2ccc(OC)c(OC)c2OC)c(OC)c1`, the Activity turned out to be 16% in the assay on K562 [1], 74% in the assay on K562 [3], 27% in assay [4] and 10% with K562 [6]. Also, the IC50 came to 300 nM in the assay on K562 [7] and 15000 nM in assay [5].

On to `COc1cc(C(=O)/C(C)=C/c2cc(F)c(OC)c(F)c2)cc(OC)c1OC`, for which the Activity with K562 [1] was found to be 24%; with K562 [3], 72%; in assay [4], 25%; in the assay on K562 [6], 4%. Also, the figures for the IC50 (in the assay with K562 [7]; in assay [5]) were 50 nM and 2400 nM, respectively.

For the compound `COc1ccc(/C=C(\C)C(=O)c2cc(OC)c(OC)c(OC)c2)cc1O`, the Activity in the assay with K562 [1] is 7%; in the assay on K562 [3], 83%; in assay [4], 8%; with K562 [6] it was 10%. Further, the outcome (in the assay with HUVEC; in assay [8]; in the assay on Vero) was Active. Besides, in assay [5], half-maximal inhibition (IC50) required 460 nM.

In the case of `COc1ccc(/C=C/C(=O)c2cc(OC)c(OC)c(OC)c2)cc1OC`, the Activity stood at 25% with K562 [1], 44% with K562 [3], 62% in [4] and 31% in the assay with K562 [6]. In addition, the values for the IC50 (with K562 [7]; in [5]) were 300 nM and over 25000 nM, respectively.

As for `CO/C(=C\c1ccc(OC)c(F)c1)C(=O)c1cc(OC)c(OC)c(OC)c1`, the Activity in the assay on K562 [1] worked out at 13%; in the assay on K562 [3], 46%; in assay [4] it was 8%; with K562 [6], 41%. Also, the outcome with HUVEC was Active. Further, the IC50 in the assay on K562 [7] was determined as 3.7 nM; in assay [5], 470 nM.

With `COc1ccc(C(=O)/C(C)=C/c2ccc(OC)c(OP(=O)(O)O)c2)cc1`, the outcome in the assay with HUVEC was Active. Moreover, in [4], the Activity came to 12%.

With `COc1cc(C(=O)/C=C/c2ccc3c(c2)OCCO3)cc(OC)c1OC`, the Activity in the assay on K562 [1] is 23%; with K562 [3], 50%; in assay [4], 10%; in the assay with K562 [6], 27%. In assay [5], this compound came in with a concentration for half-maximal inhibition (IC50) of 13000 nM. Besides, the outcome with Vero was Active.

`COc1ccc(/C=C/C(=O)c2ccc(OC)c(OC)c2OC)cc1O`: the Activity in the assay on K562 [1] is 28%; in the assay on K562 [3], 40%; in the assay on K562 [6], 32%. Moreover, the IC50 in the assay with K562 [7] amounted to 10 nM; in [5], 450 nM.

On to `CO/C(=C\c1cc(F)c(OC)c(F)c1)C(=O)c1cc(OC)c(OC)c(OC)c1`, for which the Activity worked out at 15% with K562 [1], 55% in the assay with K562 [3], 41% in assay [4] and 30% in the assay with K562 [6]. Besides, in the assay on HUVEC, the result was Active. In addition, the IC50 in the assay with K562 [7] stood at 360 nM; in assay [5] it was 1700 nM.

Take `COc1ccc(C(=O)/C=C/c2ccc(OC)c(OP(=O)(O)O)c2)cc1`: in the assay on HUVEC, the outcome was Active. Also, the Activity in assay [4] was 83%.
